Assay results from the NIST ThermoML archive (doi:10.1021/je0202073).
± gives the expanded uncertainty stated by the source.

Legend:
[1] = excess molar enthalpy (molar enthalpy of mixing); xn = mol fraction of the nth substance listed; conditions: 101.3 kPa, Liquid, Calvet calorimetry
[2] = xn = mol fraction of the nth substance listed; conditions: 101.3 kPa, Liquid

CCOC=O [ethyl methanoate] + CC(C)(C)O
Conditions	excess molar enthalpy [kJ/mol]	excess molar volume [m3/mol]
[1], 299.15 K, x1 = 0.0689	0.588 ± 0.015	–
[1], 299.15 K, x1 = 0.1401	1.06 ± 0.018	–
[1], 299.15 K, x1 = 0.2146	1.48 ± 0.021	–
[1], 299.15 K, x1 = 0.2869	1.8 ± 0.024	–
[1], 299.15 K, x1 = 0.3549	2 ± 0.025	–
[1], 299.15 K, x1 = 0.4172	2.12 ± 0.026	–
[1], 299.15 K, x1 = 0.4738	2.17 ± 0.027	–
[1], 299.15 K, x1 = 0.5242	2.16 ± 0.027	–
[1], 299.15 K, x1 = 0.5696	2.16 ± 0.027	–
[1], 299.15 K, x1 = 0.571	2.14 ± 0.027	–
[1], 299.15 K, x1 = 0.6322	2.04 ± 0.026	–
[1], 299.15 K, x1 = 0.6996	1.87 ± 0.024	–
[1], 299.15 K, x1 = 0.7701	1.61 ± 0.022	–
[1], 299.15 K, x1 = 0.8357	1.26 ± 0.019	–
[1], 299.15 K, x1 = 0.8964	0.893 ± 0.018	–
[1], 299.15 K, x1 = 0.9485	0.453 ± 0.018	–
[1], 318.15 K, x1 = 0.0612	0.52 ± 0.014	–
[1], 318.15 K, x1 = 0.1263	0.916 ± 0.017	–
[1], 318.15 K, x1 = 0.2016	1.37 ± 0.02	–
[1], 318.15 K, x1 = 0.2725	1.68 ± 0.022	–
[1], 318.15 K, x1 = 0.3389	1.85 ± 0.024	–
[1], 318.15 K, x1 = 0.3986	1.97 ± 0.025	–
[1], 318.15 K, x1 = 0.4509	2.03 ± 0.025	–
[1], 318.15 K, x1 = 0.4911	2.05 ± 0.025	–
[1], 318.15 K, x1 = 0.511	2.05 ± 0.025	–
[1], 318.15 K, x1 = 0.5304	2.05 ± 0.025	–
[1], 318.15 K, x1 = 0.5696	2.03 ± 0.025	–
[1], 318.15 K, x1 = 0.6207	1.99 ± 0.025	–
[1], 318.15 K, x1 = 0.6806	1.88 ± 0.024	–
[1], 318.15 K, x1 = 0.7292	1.74 ± 0.023	–
[1], 318.15 K, x1 = 0.786	1.55 ± 0.021	–
[1], 318.15 K, x1 = 0.8292	1.35 ± 0.02	–
[1], 318.15 K, x1 = 0.8754	1.09 ± 0.018	–
[1], 318.15 K, x1 = 0.9191	0.805 ± 0.019	–
[1], 318.15 K, x1 = 0.9757	0.305 ± 0.018	–
[2], 303.15 K, x1 = 0.0451	–	1.65e-06 ± 9e-08
[2], 303.15 K, x1 = 0.0901	–	3.35e-06 ± 9e-08
[2], 303.15 K, x1 = 0.1537	–	5.06e-06 ± 9e-08
[2], 303.15 K, x1 = 0.1973	–	6.07e-06 ± 1e-07
[2], 303.15 K, x1 = 0.2481	–	7.02e-06 ± 1e-07
[2], 303.15 K, x1 = 0.2631	–	7.32e-06 ± 1e-07
[2], 303.15 K, x1 = 0.3042	–	7.9e-06 ± 1.1e-07
[2], 303.15 K, x1 = 0.3255	–	8.1e-06 ± 1.1e-07
[2], 303.15 K, x1 = 0.3448	–	8.3e-06 ± 1.1e-07
[2], 303.15 K, x1 = 0.3957	–	8.6e-06 ± 1.1e-07
[2], 303.15 K, x1 = 0.4411	–	8.73e-06 ± 1.1e-07
[2], 303.15 K, x1 = 0.4445	–	8.75e-06 ± 1.1e-07
[2], 303.15 K, x1 = 0.4964	–	8.79e-06 ± 1.1e-07
[2], 303.15 K, x1 = 0.5013	–	8.8e-06 ± 1.1e-07
[2], 303.15 K, x1 = 0.5084	–	8.78e-06 ± 1.1e-07
[2], 303.15 K, x1 = 0.5344	–	8.7e-06 ± 1.1e-07
[2], 303.15 K, x1 = 0.5515	–	8.64e-06 ± 1.1e-07
[2], 303.15 K, x1 = 0.5677	–	8.58e-06 ± 1.1e-07
[2], 303.15 K, x1 = 0.5954	–	8.35e-06 ± 1.1e-07
[2], 303.15 K, x1 = 0.6467	–	7.94e-06 ± 1.1e-07
[2], 303.15 K, x1 = 0.6956	–	7.42e-06 ± 1e-07
[2], 303.15 K, x1 = 0.7432	–	6.59e-06 ± 1e-07
[2], 303.15 K, x1 = 0.8016	–	5.54e-06 ± 9e-08
[2], 303.15 K, x1 = 0.8477	–	4.63e-06 ± 9e-08
[2], 303.15 K, x1 = 0.9067	–	3.28e-06 ± 8e-08
[2], 303.15 K, x1 = 0.9465	–	2.17e-06 ± 8e-08
[2], 318.15 K, x1 = 0.1022	–	4.09e-06 ± 9e-08
[2], 318.15 K, x1 = 0.1289	–	4.86e-06 ± 9e-08
[2], 318.15 K, x1 = 0.232	–	7.07e-06 ± 1e-07
[2], 318.15 K, x1 = 0.2909	–	7.96e-06 ± 1.1e-07
[2], 318.15 K, x1 = 0.3356	–	8.41e-06 ± 1.1e-07
[2], 318.15 K, x1 = 0.4076	–	8.97e-06 ± 1.2e-07
[2], 318.15 K, x1 = 0.4696	–	9.17e-06 ± 1.2e-07
[2], 318.15 K, x1 = 0.4934	–	9.19e-06 ± 1.2e-07
[2], 318.15 K, x1 = 0.5055	–	9.2e-06 ± 1.2e-07
[2], 318.15 K, x1 = 0.5111	–	9.19e-06 ± 1.2e-07
[2], 318.15 K, x1 = 0.5267	–	9.13e-06 ± 1.2e-07
[2], 318.15 K, x1 = 0.536	–	9.09e-06 ± 1.2e-07
[2], 318.15 K, x1 = 0.5637	–	8.91e-06 ± 1.1e-07
[2], 318.15 K, x1 = 0.5859	–	8.75e-06 ± 1.1e-07
[2], 318.15 K, x1 = 0.639	–	8.21e-06 ± 1.1e-07
[2], 318.15 K, x1 = 0.6902	–	7.6e-06 ± 1.1e-07
[2], 318.15 K, x1 = 0.7388	–	6.82e-06 ± 1e-07
[2], 318.15 K, x1 = 0.7922	–	5.79e-06 ± 9e-08
[2], 318.15 K, x1 = 0.8429	–	4.71e-06 ± 9e-08
[2], 318.15 K, x1 = 0.8913	–	3.45e-06 ± 8e-08
[2], 318.15 K, x1 = 0.9414	–	2.04e-06 ± 8e-08
